Structures are written as SMILES. Marks after values point to notes of the source that are not given here.

Experimental findings from patent EP0385952A2, “Use of a naphthalenmethanamino derivative as antiinflammatory agent and pharmaceutical compositions containing it” (SANDOZ AG, priority 1989, dated 1990) are described below.

What all share (format): in vivo
Experiment [1] has as its system NMRI mice. As to the kind of experiment: Arachidonic acid-induced pinnal swelling in mice (irritant contact dermatitis, 2.1.1.). To be noted: prophylactic, epicutaneous, pinnal weight. The protocol:
(§1) Skin irritation with arachidonic acid or cantharidin is often used to experimentally induce inflammation in order to evaluate the anti-inflammatory activity of a compound [see e.g. Inflammation 8 (1984) 134-135; 10 (1986) 205-214]. NMRI mice (8 animals per group) receive 10 µl of a 10 % solution of arachidonic acid [J.M. Young et al., J. Invest. Derm. 82 (1986) 367-371] in acetone or, respectively, 0.08 % cantharidin [K.E. Swingle et al., Arch. Int. Pharmacodyn. Ther. 254 (1981) 168-176] in acetone applied to the medial and lateral surface of the right external ear. Treatment is performed either prophylactically 30 minutes before irritation (arachidonic acid) or, respectively, either simultaneously with the application of irritant solution or therapeutically 20 minutes after irritation (cantharidin), by a single epicutaneous application of the test compound dissolved in a mixture of N,N-dimethylacetamide, acetone and alcohol (2:2:4). The evaluation of the test group is effected by comparison with a control group of animals having received on the right ear lobe only the carrier substance or the irritant solution. The animals are killed 1.5 hours (arachidonic acid) or, respectively, 17 hours (cantharidin) after application of the irritant and efficacy in assessed by determination of the differences in auricular weight. Differences in weights (D) of right (involved) and left (uninvolved) pinnae of animals treated with test compound and arachidonic acid or cantharidin (T-group) are compared with differences in mice treated with arachidonic acid only or cantharidin only (C-group). Efficacy (%) is calculated according to the equation: [formula]

For experiment [2], the system named is NMRI mice. The experiment can be described thus: Cantharidin-induced pinnal swelling in mice (irritant contact dermatitis, 2.1.1.). The following applies: epicutaneous, pinnal weight. The protocol: as §1
Experiment [3] deals with mice. As to the kind of experiment: Croton oil-induced pinnal swelling in mice (irritant contact dermatitis, 2.1.2.). To be noted: simultaneous, topical, pinnal weight after 6 hours. The protocol: as §1
(§2) This model is similar to the above (see 2.1.1.). Skin inflammation is induced with 15 µl of 0.23 % croton oil in a mixture of dimethylacetamide, acetone and ethanol (2:4:4), or with 10 µl of 0.005 % TPA [12-O-tetradecanoylphorbol-13-acetate; Sigma] prepared in acetone with 0.5 % dimethylsulfoxide. Topical treatment is performed either simultaneously with the irritation (croton oil) or 20 minutes after the application (TPA). The test compound is prepared in DAE. Efficacy is assessed 6 hours after onset of irritation by determination of the auricular weight as described above.

In experiment [4] the test system is mice. As to the kind of experiment: TPA-induced pinnal swelling in mice (irritant contact dermatitis, 2.1.2.). The following applies: therapeutic, topical, pinnal weight after 6 hours. The protocol:
as §1, §2

In a further experiment the test system is guinea pigs. As to the kind of experiment: UV-erythema model (2.2.). The following applies: therapeutic, test concentration 5.0 %, topical, erythema score. As to the method: Female guinea pigs weighing 250-300 g are used. On the day before experiment they are shorn on both flanks followed by a final dry shaving without skin irritation two hours before UV exposure. Two circular areas (10 mm diameter) on each flank are exposed 10 seconds to ultraviolet rays from […] at an intensity of 16 mW/cm² (UVA) and 500 mW/cm² (UVB). Drugs are administered topically immediately after exposure to UV light in a volume of 50 µl of 25 % ethanol and 75 %polyethylenglycol-400 to the irradiated skin areas on the right flank. Two areas on the left flank serve as vehicle control. Erythema is assessed visually 3.5 and 5.5 hours after irradiation and results expressed in scores. Changes in erythema intensity after drug administration are expressed as percentages of the scored erythema intensity in vehicle-treated areas.

As for `CCCCOc1ccc(CC(=O)NO)cc1` [Bufexamac, 2-[p-(n-butyloxy)phenyl]-acetohydroxamic acid, reference compound], the “Efficacy (%)” value is recorded as 35* % in the experiment on NMRI mice [1] (test concentration 1.2 %); 22* % with NMRI mice [1] (test concentration 3.6 %); 36% with NMRI mice [2] (simultaneous, test concentration 1.2 %); 29% in the experiment with NMRI mice [2] (simultaneous, test concentration 3.6 %); 22% in the experiment with NMRI mice [2] (therapeutic, test concentration 1.2 %); 14% in the experiment with NMRI mice [2] (therapeutic, test concentration 3.6 %). The “Efficacy (%)” value in the experiment with mice [3] (test concentration 1.2 %) is on record as 11%; in the experiment on mice [3] (test concentration 3.6 %) it was 36** %; in the experiment on mice [4] (test concentration 1.2 %) it was 1%; in the experiment on mice [4] (test concentration 3.6 %) it was 2%; with guinea pigs, 8%.
